Data reported in US9708311B2, “Benzimidazole derivatives as EP4 antagonists” (BAYER PHARMA AKTIENGESELLSCHAFT, priority 2012, dated 2017).

Target: human EP4 receptor (Homo sapiens (Human), UniProt P35408)
Assay: Test for antagonism of the human EP4 receptor signal (cAMP HTRF)
Assay type: cell-based
Conditions: cells expressing hEP4, PGE2 at EC80 (0.4 nM), cAMP TR-FRET; read-out: Antagonism hEP4 IC50
Summary of the method: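 Antagonism of PGE2-stimulated cAMP formation in hEP4-R cells with IBMX present. After lysis, cAMP measured by competitive TR-FRET (Eu cryptate anti-cAMP antibody vs cAMP-d2), 20 min at room temperature. Read-out is the 665/620 nm emission ratio; antagonism appears as restored FRET signal.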

Sequence of human EP4 receptor (P35408 whole entry): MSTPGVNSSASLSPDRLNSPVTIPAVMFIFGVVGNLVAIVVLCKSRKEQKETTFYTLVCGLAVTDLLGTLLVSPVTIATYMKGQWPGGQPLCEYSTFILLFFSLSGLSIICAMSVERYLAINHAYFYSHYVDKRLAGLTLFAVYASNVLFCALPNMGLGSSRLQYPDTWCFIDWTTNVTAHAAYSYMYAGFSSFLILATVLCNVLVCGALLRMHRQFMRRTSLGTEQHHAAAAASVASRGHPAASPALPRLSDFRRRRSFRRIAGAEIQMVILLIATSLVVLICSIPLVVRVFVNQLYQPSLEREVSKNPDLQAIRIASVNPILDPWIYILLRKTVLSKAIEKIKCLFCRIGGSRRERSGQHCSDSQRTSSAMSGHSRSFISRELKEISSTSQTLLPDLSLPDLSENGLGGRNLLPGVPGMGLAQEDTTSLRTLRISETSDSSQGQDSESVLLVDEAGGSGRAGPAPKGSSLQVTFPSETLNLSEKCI

Going from `CCn1c2ccccc2c2cc(-c3nc4cc(C(=O)O)c(C)cc4n3CCOC)ccc21` [Example 111, 2-(9-Ethyl-9H-carbazol-3-yl)-1-(2-methoxyethyl)-6-methyl-1H-benzimidazole-5-carboxylic acid] to `CCn1c2ccccc2c2cc(-c3nc4cc(C(=O)O)c(F)cc4n3CCOC)ccc21` [Example 113, 2-(9-Ethyl-9H-carbazol-3-yl)-6-fluoro-1-(2-methoxyethyl)-1H-benzimidazole-5-carboxylic acid], the IC50 falls from 612 nM to 59.5 nM (10-fold).

First: CCn1c2ccccc2c2cc(-c3nc4cc(C(=O)O)c(F)cc4n3CC3CC3)ccc21 [Example 112, 1-(Cyclopropylmethyl)-2-(9-ethyl-9H-carbazol-3-yl)-6-fluoro-1H-benzimidazole-5-carboxylic acid]
Second: CCn1c2ccccc2c2cc(-c3nc4c(F)c(C(=O)O)ccc4n3CC3CC3)ccc21 [Example 115, 1-(Cyclopropylmethyl)-2-(9-ethyl-9H-carbazol-3-yl)-4-fluoro-1H-benzimidazole-5-carboxylic acid]
The IC50 of the first is 3-fold higher: 34.6 nM for the first, 11.6 nM for the second.

First: CCn1c2ccccc2c2cc(-c3nc4c(F)c(C(=O)O)ccc4n3CCOC)ccc21 [Example 114, 2-(9-Ethyl-9H-carbazol-3-yl)-4-fluoro-1-(2-methoxyethyl)-1H-benzimidazole-5-carboxylic acid]
Second: CCn1c2ccc(C)cc2c2cc(-c3nc4c(C)c(C(=O)O)ccc4n3CCOC)ccc21 [Example 141, 2-(9-Ethyl-6-methyl-9H-carbazol-3-yl)-1-(2-methoxyethyl)-4-methyl-1H-benzimidazole-5-carboxylic acid]
The IC50 of the first is 2.4-fold lower: 6.42 nM for the first, 15.3 nM for the second.

First: CCn1c2ccc(-c3nc4cc(C(=O)O)ccc4n3CC3CC3)cc2c2cccnc21 [Example 116, 1-(Cyclopropylmethyl)-2-(9-ethyl-9H-pyrido[2,3-b]indol-6-yl)-1H-benzimidazole-5-carboxylic acid]
Second: CCCn1c2ccccc2c2cc(-c3nc4cc(C(=O)O)ccc4n3CC3CC3)ccc21 [Example 120, 1-(Cyclopropylmethyl)-2-(9-propyl-9H-carbazol-3-yl)-1H-benzimidazole-5-carboxylic acid]
The IC50 of the first is 2.8-fold lower: 22.2 nM for the first, 63 nM for the second. The first is the more potent here.

`CCn1c2ccccc2c2cc(-c3nc4cc(C(=O)O)ccc4n3CCC3CC3)ccc21` [Example 117, 1-(2-Cyclopropylethyl)-2-(9-ethyl-9H-carbazol-3-yl)-1H-benzimidazole-5-carboxylic acid] and `CCn1c2ccccc2c2cc(-c3nc4cc(C(=O)O)ccc4n3CC(O)C3CC3)ccc21` (centres unmarked) [Example 137, 1-(2-Cyclopropyl-2-hydroxyethyl)-2-(9-ethyl-9H-carbazol-3-yl)-1H-benzimidazole-5-carboxylic acid] are within 1.5-fold of each other in IC50: 22.1 nM for the first, 18.6 nM for the second.

`CCCn1c2ccccc2c2cc(-c3nc4cc(C(=O)O)ccc4n3CCOC)ccc21` [Example 118, 1-(2-Methoxyethyl)-2-(9-propyl-9H-carbazol-3-yl)-1H-benzimidazole-5-carboxylic acid] and `C#CCn1c2ccccc2c2cc(-c3nc4cc(C(=O)O)ccc4n3CCOC)ccc21` [Example 119, 1-(2-Methoxyethyl)-2-[9-(prop-2-yn-1-yl)-9H-carbazol-3-yl]-1H-benzimidazole-5-carboxylic acid] are within 1.5-fold of each other in IC50: 36.2 nM for the first, 43.7 nM for the second.

First: CCn1c2ccccc2c2cc(-c3nc4cc(C(=O)O)ccc4n3CC3CC3(C)C)ccc21 (centres unmarked) [Example 121, 1-[(2,2-Dimethylcyclopropyl)methyl]-2-(9-ethyl-9H-carbazol-3-yl)-1H-benzimidazole-5-carboxylic acid]
Second: CCn1c2ccccc2c2cc(-c3nc4cc(C(=O)O)ccc4n3CC3COC3)ccc21 [Example 123, 2-(9-Ethyl-9H-carbazol-3-yl)-1-(oxetan-3-ylmethyl)-1H-benzimidazole-5-carboxylic acid]
The IC50 of the first is 1.9-fold higher: 100 nM for the first, 51.5 nM for the second.

Compared with `CCOC(=O)c1ccc2c(c1)nc(-c1ccc3c(c1)c1ccccc1n3CC)n2CC1COC1` [Example 122, Ethyl 2-(9-ethyl-9H-carbazol-3-yl)-1-(oxetan-3-ylmethyl)-1H-benzimidazole-5-carboxylate], `CCn1c2ccccc2c2cc(-c3nc4cc(C(=O)O)ccc4n3CC3CCO3)ccc21` (centres unmarked) [Example 132, 2-(9-Ethyl-9H-carbazol-3-yl)-1-(oxetan-2-ylmethyl)-1H-benzimidazole-5-carboxylic acid] is 19-fold lower in IC50: 464 nM for the first, 24.5 nM for the second.

Compared with `COCCn1c(-c2ccc3c(c2)c2ccccc2n3CC2CCC2)nc2cc(C(=O)O)ccc21` [Example 124, 2-[9-(Cyclobutylmethyl)-9H-carbazol-3-yl]-1-(2-methoxyethyl)-1H-benzimidazole-5-carboxylic acid], `O=C(O)c1ccc2c(c1)nc(-c1ccc3c(c1)c1ccccc1n3CC1CCC1)n2CC1CC1` [Example 125, 2-[9-(Cyclobutylmethyl)-9H-carbazol-3-yl]-1-(cyclopropylmethyl)-1H-benzimidazole-5-carboxylic acid] is 2.7-fold higher in IC50: 94.3 nM for the first, 257 nM for the second.

Going from `CCn1c2ccccc2c2cc(-c3nc4cc(-c5n[nH]c(=O)o5)ccc4n3CCN(C)C)ccc21` [Example 126, 5-{1-[2-(Dimethylamino)ethyl]-2-(9-ethyl-9H-carbazol-3-yl)-1H-benzimidazol-5-yl}-1,3,4-oxadiazol-2(3H)-one] to `CCn1c2ccccc2c2cc(-c3nc4cc(S(N)(=O)=O)ccc4n3CCOC)ccc21` [Example 127, 2-(9-Ethyl-9H-carbazol-3-yl)-1-(2-methoxyethyl)-1H-benzimidazole-5-sulphonamide], the IC50 rises from 118 nM to 305 nM (2.6-fold).

Compared with `CCn1c2ccccc2c2cc(-c3nc4cc(-n5ccnn5)ccc4n3C)ccc21` [Example 128, 9-Ethyl-3-[1-methyl-5-(1H-1,2,3-triazol-1-yl)-1H-benzimidazole-2-yl]-9H-carbazole], `CCn1c2ccccc2c2cc(-c3nc4cc(S(=O)(=O)NC)ccc4n3C)ccc21` [Example 129, 2-(9-Ethyl-9H-carbazol-3-yl)-N,1-dimethyl-1H-benzimidazole-5-sulphonamide] is 8.5-fold higher in IC50: 111 nM for the first, 944 nM for the second. The first is the more potent here.

First: CCn1c2ccccc2c2cc(-c3nc4cc(C(=O)O)ccc4n3CCOC(F)(F)F)ccc21 [Example 130, 2-(9-Ethyl-9H-carbazol-3-yl)-1-[2-(trifluoromethoxy)ethyl]-1H-benzimidazole-5-carboxylic acid]
Second: CCn1c2ccccc2c2cc(-c3nc4cc(C(=O)O)ccc4n3CCS(C)(=O)=O)ccc21 [Example 136, 2-(9-Ethyl-9H-carbazol-3-yl)-1-[2-(methylsulphonyl)ethyl]-1H-benzimidazole-5-carboxylic acid]
The IC50 of the first is 23-fold lower: 14.3 nM for the first, 325 nM for the second.

Compared with `CCn1c2ccccc2c2cc(-c3nc4cc(C(=O)O)ccc4n3CC3CC3)nc(C)c21` [Example 131, 1-(Cyclopropylmethyl)-2-(9-ethyl-1-methyl-9H-beta-carbolin-3-yl)-1H-benzimidazole-5-carboxylic acid], `CCn1c2ccccc2c2cc(-c3nc4cc(C(=O)O)ccc4n3CC3CCCO3)ccc21` (centres unmarked) [Example 133, 2-(9-Ethyl-9H-carbazol-3-yl)-1-(tetrahydrofuran-2-ylmethyl)-1H-benzimidazole-5-carboxylic acid] is 69-fold lower in IC50: 480 nM for the first, 7 nM for the second.

First: CCn1c2ccccc2c2cc(-c3nc4cc(C(=O)O)ccc4n3C[C@@H](O)COC)ccc21 [Example 134, 2-(9-Ethyl-9H-carbazol-3-yl)-1-[(2R)-2-hydroxy-3-methoxypropyl]-1H-benzimidazole-5-carboxylic acid]
Second: CCn1c2ccccc2c2cc(-c3nc4cc(C(=O)O)ccc4n3C[C@H](O)COC)ccc21 [Example 135, 2-(9-Ethyl-9H-carbazol-3-yl)-1-[(2S)-2-hydroxy-3-methoxypropyl]-1H-benzimidazole-5-carboxylic acid]
The IC50 of the first is 2.5-fold lower: 136 nM for the first, 340 nM for the second. The first is the more potent here.

Compared with `CCn1c2ccccc2c2cc(-c3nc4cc(C(=O)O)ccc4n3C[C@H](O)CO)ccc21` [Example 138, 1-[(2S)-2,3-Dihydroxypropyl]-2-(9-ethyl-9H-carbazol-3-yl)-1H-benzimidazole-5-carboxylic acid], `CCn1c2ccccc2c2cc(-c3nc4cc(C(=O)O)ccc4n3C[C@@H]3COCCO3)ccc21` [Example 139, 1-[(2R)-1,4-Dioxan-2-ylmethyl]-2-(9-ethyl-9H-carbazol-3-yl)-1H-benzimidazole-5-carboxylic acid] is 2.2-fold lower in IC50: 567 nM for the first, 252 nM for the second.

`CCn1c2ccc(Cl)cc2c2cc(-c3nc4c(C)c(C(=O)O)ccc4n3CCOC)ccc21` [Example 142, 2-(6-Chloro-9-ethyl-9H-carbazol-3-yl)-1-(2-methoxyethyl)-4-methyl-1H-benzimidazole-5-carboxylic acid] and `CCn1c2ccc(-c3nc4c(C)c(C(=O)O)ccc4n3CCOC)cc2c2cccc(Cl)c21` [Example 143, 2-(8-Chloro-9-ethyl-9H-carbazol-3-yl)-1-(2-methoxyethyl)-4-methyl-1H-benzimidazole-5-carboxylic acid] are within 1.5-fold of each other in IC50: 4.16 nM for the first, 5.19 nM for the second.
